In ChEMBL document CHEMBL5696441 (Nat Chem Biol, 2011):

What was measured:
[1] = Anti-inflammatory activity against human derived medium respond PBMC cells assessed as inhibition in stimulated IL-8 cytokine release incubated for 2 hrs in the presence of LPS/SEB/aCD28 by Luminex based sandwich immunoassay; format: functional, cell-based
[2] = molecular target: Rho-associated protein kinase 1 (Homo sapiens) (UniProt Q13464); assay: Inhibition of human ROCK1 assessed as residual activity at 1 uM using 3xChocktide-PKC(19-31) as substrate in presence of 33P-ATP by ProQinase assay relative to control
Chain of Rho-associated protein kinase 1 (Homo sapiens) (Q13464 2-1354 limits assumed): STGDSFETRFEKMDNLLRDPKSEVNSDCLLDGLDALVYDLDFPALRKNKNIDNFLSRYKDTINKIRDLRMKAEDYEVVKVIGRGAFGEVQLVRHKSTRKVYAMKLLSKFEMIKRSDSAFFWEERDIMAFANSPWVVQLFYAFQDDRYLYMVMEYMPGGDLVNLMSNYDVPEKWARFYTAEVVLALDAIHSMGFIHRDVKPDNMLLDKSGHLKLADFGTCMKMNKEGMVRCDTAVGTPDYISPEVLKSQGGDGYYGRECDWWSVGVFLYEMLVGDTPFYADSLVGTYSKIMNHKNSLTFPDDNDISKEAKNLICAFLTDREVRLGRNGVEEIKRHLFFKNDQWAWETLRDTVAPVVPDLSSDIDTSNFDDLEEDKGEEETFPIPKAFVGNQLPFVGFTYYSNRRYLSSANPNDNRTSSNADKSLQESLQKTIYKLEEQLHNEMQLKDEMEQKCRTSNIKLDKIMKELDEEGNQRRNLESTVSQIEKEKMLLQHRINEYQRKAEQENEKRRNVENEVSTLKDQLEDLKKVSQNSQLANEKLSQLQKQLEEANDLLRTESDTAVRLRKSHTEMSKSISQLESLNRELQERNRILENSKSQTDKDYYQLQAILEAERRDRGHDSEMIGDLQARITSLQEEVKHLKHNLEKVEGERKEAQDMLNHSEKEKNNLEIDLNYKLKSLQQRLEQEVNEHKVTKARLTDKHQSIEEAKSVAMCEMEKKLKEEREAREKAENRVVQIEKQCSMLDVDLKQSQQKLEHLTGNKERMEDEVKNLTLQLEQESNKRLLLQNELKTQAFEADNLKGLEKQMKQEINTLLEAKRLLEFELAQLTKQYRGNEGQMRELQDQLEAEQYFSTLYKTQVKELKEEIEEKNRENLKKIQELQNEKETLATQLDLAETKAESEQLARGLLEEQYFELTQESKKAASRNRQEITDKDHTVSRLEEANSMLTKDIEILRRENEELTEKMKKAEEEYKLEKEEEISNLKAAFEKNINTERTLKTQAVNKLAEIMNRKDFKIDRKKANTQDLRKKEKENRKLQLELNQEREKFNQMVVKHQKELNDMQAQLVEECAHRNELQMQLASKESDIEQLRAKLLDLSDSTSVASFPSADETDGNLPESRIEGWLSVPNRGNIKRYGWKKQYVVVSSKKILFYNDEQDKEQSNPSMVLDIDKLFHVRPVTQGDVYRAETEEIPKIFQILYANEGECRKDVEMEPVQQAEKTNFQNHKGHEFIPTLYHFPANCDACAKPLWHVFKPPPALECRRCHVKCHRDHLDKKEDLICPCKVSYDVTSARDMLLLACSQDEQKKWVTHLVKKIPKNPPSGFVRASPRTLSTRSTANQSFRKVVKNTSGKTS

[3] = molecular target: Serine/threonine-protein kinase RIO3 (Homo sapiens) (UniProt O14730); assay: Inhibition of RIOK3 (unknown origin) assessed as remaining activity at 1 uM by Kinome scan method relative to control
Chain of Serine/threonine-protein kinase RIO3 (Homo sapiens) (O14730 whole entry): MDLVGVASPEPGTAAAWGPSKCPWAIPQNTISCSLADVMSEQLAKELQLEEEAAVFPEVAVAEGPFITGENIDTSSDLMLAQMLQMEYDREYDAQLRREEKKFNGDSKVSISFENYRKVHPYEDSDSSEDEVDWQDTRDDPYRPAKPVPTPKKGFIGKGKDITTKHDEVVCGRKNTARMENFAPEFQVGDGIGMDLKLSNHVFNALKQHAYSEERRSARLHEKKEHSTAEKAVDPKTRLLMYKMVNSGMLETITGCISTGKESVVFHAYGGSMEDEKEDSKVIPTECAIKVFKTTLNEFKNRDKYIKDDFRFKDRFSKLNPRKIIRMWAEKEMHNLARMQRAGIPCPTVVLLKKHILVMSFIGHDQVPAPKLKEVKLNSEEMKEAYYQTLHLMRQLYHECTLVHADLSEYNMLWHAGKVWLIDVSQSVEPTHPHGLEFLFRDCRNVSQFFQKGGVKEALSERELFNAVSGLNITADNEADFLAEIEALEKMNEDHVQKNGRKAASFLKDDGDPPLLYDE

[4] = molecular target: Leukocyte tyrosine kinase receptor (Homo sapiens) (UniProt P29376); assay: Inhibition of LTK (unknown origin) assessed as remaining activity at 1 uM by Kinome scan method relative to control
TAK1/TAB1 (Homo sapiens) = TAK1/TAB1 (Homo sapiens) (UniProt Q15750+O43318); assay: Inhibition of human MAP3K7/MAP3K7IP1 assessed as residual activity at 1 uM using RB-S6P as substrate in presence of 33P-ATP by ProQinase assay relative to control; format: protein-complex assay
[5] = molecular target: Mitogen-activated protein kinase kinase kinase 8 (Homo sapiens) (UniProt P41279); assay: Inhibition of human COT assessed as residual activity at 1 uM using RBER-CHKtide as substrate in presence of 33P-ATP by ProQinase assay relative to control
[6] = molecular target: Tyrosine-protein kinase Srms (Homo sapiens) (UniProt Q9H3Y6); assay: Inhibition of SRMS (unknown origin) assessed as remaining activity at 1 uM by Kinome scan method relative to control
Chain of Tyrosine-protein kinase Srms (Homo sapiens) (Q9H3Y6 whole entry): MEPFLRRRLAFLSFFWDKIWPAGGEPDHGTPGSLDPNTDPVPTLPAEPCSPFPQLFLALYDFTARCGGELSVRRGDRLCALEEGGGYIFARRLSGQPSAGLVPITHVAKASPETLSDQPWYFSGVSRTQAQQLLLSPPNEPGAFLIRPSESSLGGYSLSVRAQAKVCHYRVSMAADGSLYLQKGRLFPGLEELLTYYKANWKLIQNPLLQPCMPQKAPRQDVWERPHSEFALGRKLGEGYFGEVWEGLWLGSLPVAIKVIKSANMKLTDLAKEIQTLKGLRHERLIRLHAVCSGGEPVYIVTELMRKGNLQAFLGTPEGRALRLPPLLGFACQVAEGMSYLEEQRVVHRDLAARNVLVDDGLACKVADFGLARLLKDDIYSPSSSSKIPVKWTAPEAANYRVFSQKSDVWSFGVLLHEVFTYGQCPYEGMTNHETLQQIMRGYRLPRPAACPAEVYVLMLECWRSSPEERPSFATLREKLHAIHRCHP

[7] = molecular target: Aurora kinase B (Homo sapiens) (UniProt Q96GD4); assay: Inhibition of human AuroraB assessed as residual activity at 1 uM using bio-4xCHKT as substrate in presence of 33P-ATP by ProQinase assay relative to control
Chain of Aurora kinase B (Homo sapiens) (Q96GD4 whole entry): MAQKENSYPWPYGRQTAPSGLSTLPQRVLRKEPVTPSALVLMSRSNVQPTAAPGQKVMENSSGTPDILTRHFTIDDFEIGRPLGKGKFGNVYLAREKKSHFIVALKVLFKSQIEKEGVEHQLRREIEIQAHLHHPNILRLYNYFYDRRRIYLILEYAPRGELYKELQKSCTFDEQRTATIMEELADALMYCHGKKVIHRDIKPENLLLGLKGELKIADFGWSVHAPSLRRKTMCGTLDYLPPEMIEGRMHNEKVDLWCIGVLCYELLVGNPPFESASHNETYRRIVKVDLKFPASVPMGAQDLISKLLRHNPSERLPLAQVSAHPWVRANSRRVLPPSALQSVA

[8] = molecular target: Serine/threonine-protein kinase PLK1 (Homo sapiens) (UniProt P53350); assay: Inhibition of human PLK1 assessed as residual activity at 1 uM using RBER-CHKtide as substrate in presence of 33P-ATP by ProQinase assay relative to control
[9] = test system: Epidermal growth factor receptor (Homo sapiens), P00533 [UNDEFINED MUTATION]; assay: Inhibition of EGFR S752-I759del mutant (unknown origin) assessed as remaining activity at 1 uM by Kinome scan method relative to control
Chain of Epidermal growth factor receptor (Homo sapiens), P00533 [UNDEFINED MUTATION] (P00533 whole entry, looked up, stated change not applied): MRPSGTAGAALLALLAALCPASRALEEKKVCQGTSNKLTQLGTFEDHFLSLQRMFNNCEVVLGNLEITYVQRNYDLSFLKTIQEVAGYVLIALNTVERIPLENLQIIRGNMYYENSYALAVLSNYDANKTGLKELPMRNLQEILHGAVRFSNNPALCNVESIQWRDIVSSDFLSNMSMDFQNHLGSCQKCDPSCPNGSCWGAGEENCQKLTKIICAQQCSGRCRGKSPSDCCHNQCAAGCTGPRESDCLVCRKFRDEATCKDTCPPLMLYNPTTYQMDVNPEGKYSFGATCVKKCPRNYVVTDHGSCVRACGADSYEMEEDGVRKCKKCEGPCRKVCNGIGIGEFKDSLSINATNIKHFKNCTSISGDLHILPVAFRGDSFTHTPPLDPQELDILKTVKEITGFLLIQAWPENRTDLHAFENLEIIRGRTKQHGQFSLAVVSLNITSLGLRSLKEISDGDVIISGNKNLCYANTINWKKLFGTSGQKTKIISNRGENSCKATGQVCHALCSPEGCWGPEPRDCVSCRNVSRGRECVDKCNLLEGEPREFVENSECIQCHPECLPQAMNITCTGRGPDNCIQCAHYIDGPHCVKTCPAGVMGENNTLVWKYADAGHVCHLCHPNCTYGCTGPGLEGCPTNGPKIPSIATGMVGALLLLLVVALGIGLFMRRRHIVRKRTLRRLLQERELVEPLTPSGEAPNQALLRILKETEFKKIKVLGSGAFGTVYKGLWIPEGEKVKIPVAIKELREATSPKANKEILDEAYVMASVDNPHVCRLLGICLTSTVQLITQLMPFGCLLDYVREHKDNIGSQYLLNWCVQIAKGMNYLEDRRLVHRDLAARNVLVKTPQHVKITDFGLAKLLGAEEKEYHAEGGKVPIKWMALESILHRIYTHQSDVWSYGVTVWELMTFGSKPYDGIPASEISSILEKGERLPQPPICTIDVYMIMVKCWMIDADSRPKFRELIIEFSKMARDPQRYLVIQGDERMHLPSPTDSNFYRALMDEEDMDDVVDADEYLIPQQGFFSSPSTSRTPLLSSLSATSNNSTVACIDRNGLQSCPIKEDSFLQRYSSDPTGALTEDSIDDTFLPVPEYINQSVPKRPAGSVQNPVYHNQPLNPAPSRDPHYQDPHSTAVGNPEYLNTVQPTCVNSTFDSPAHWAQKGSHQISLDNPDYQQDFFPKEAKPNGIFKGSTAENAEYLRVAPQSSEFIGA

[10] = molecular target: Serine/threonine-protein kinase 3 (Homo sapiens) (UniProt Q13188); assay: Inhibition of human MST2 assessed as residual activity at 1 uM using RB-CTF as substrate in presence of 33P-ATP by ProQinase assay relative to control
[11] = test system: Epidermal growth factor receptor (Homo sapiens), P00533 [UNDEFINED MUTATION]; assay: Inhibition of human EGFR d746-750 mutant assessed as residual activity at 1 uM using PolyEY as substrate in presence of 33P-ATP by ProQinase assay relative to control
[12] = molecular target: NT-3 growth factor receptor (Homo sapiens) (UniProt Q16288); assay: Inhibition of human TRKC assessed as residual activity at 1 uM using polyEy as substrate in presence of 33P-ATP by ProQinase assay relative to control
[13] = molecular target: 5'-AMP-activated protein kinase catalytic subunit alpha-1 (Homo sapiens) (UniProt Q13131); assay: Inhibition of AMPK-alpha1 (unknown origin) assessed as remaining activity at 1 uM by Kinome scan method relative to control
Chain of 5'-AMP-activated protein kinase catalytic subunit alpha-1 (Homo sapiens) (Q13131 whole entry, looked up): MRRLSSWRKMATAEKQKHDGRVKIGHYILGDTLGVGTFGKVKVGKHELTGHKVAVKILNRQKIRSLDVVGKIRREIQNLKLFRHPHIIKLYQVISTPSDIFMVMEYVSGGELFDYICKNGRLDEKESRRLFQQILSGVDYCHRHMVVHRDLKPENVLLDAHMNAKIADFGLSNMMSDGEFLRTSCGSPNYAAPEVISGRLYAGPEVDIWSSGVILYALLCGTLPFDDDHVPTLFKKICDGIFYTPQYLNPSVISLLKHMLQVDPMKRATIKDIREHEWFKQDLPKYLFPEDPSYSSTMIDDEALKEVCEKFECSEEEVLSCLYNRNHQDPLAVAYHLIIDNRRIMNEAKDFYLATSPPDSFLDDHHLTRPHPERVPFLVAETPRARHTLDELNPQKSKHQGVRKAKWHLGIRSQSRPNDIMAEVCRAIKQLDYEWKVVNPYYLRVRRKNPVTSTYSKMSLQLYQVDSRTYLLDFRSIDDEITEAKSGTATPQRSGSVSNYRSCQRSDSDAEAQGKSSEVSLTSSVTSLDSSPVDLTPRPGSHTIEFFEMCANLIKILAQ

[14] = molecular target: T1, Aurora kinase A (Homo sapiens) (UniProt O14965); assay: Inhibition of human AuroraA assessed as residual activity at 1 uM using bio-4xCHKT as substrate in presence of 33P-ATP by ProQinase assay relative to control
T1 sequence (whole entry): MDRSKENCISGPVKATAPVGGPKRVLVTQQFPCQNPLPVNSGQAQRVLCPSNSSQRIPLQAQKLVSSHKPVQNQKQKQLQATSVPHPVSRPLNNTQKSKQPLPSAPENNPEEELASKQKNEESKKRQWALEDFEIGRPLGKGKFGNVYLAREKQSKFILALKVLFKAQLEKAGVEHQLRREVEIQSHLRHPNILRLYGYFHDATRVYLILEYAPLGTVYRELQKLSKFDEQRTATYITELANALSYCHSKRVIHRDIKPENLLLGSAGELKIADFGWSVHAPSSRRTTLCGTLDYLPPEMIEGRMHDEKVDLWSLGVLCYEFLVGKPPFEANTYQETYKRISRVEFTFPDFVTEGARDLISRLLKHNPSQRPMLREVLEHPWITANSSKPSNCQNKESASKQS

[15] = molecular target: Serine/threonine-protein kinase PAK 4 (Homo sapiens) (UniProt O96013); assay: Inhibition of human PAK4 assessed as residual activity at 1 uM using bio-4xCHKT as substrate in presence of 33P-ATP by ProQinase assay relative to control
[16] = molecular target: Proto-oncogene tyrosine-protein kinase Src (Homo sapiens) (UniProt P12931); assay: Inhibition of human GST/His-tagged SRC assessed as residual activity at 1 uM using PolyEY as substrate in presence of 33P-ATP by ProQinase assay relative to control
Chain of Proto-oncogene tyrosine-protein kinase Src (Homo sapiens) (P12931 2-536 limits assumed): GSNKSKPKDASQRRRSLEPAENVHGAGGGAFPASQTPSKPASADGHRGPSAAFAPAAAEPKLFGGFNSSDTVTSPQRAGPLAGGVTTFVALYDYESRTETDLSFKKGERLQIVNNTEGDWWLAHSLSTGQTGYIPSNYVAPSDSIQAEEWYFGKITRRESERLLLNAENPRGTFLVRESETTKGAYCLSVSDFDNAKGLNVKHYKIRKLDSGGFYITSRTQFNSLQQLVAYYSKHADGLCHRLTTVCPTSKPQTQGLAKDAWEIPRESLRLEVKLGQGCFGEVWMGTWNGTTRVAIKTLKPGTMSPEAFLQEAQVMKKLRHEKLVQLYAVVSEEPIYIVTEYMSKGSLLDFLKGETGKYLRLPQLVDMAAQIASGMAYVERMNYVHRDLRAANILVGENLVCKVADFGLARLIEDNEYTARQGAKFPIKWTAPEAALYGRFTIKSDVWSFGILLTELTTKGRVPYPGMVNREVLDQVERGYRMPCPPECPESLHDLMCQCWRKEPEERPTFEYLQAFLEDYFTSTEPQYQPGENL

[17] = test system: Platelet-derived growth factor receptor alpha (Homo sapiens), P16234 [V561D]; assay: Inhibition of human PDGFRalpha V561D mutant assessed as residual activity at 1 uM using PolyEY as substrate in presence of 33P-ATP by ProQinase assay relative to control
[18] = molecular target: Casein kinase I isoform delta (Homo sapiens) (UniProt P48730); assay: Inhibition of human CK1delta assessed as residual activity at 1 uM using casein as substrate in presence of 33P-ATP by ProQinase assay relative to control
[19] = molecular target: Tyrosine-protein kinase Mer (Homo sapiens) (UniProt Q12866); assay: Inhibition of human MERTK assessed as residual activity at 1 uM using polyEY as substrate in presence of 33P-ATP by ProQinase assay relative to control

For `O=C1c2ccc(Nc3ccc(F)cc3F)cc2CCc2ccc(OC[C@H](O)CO)cc21` [Skepinone-L], which IC50 [1] is on record?
The IC50 was 60 nM.

What about the Activity [2] of the same compound?
The Activity was 97%.

What about the Activity [3] of the same compound?
Its Activity is 99%.

And the Activity [4]?
Its Activity is 100%.

What about the Activity (TAK1/TAB1 (Homo sapiens)) of the same compound?
Its Activity is 80%.

What about the Activity [5] of the same compound?
Its Activity is 91%.

What about the Activity [6] of the same compound?
Its Activity is 90%.

And the Activity [7]?
The Activity was 96%.

And the Activity [8]?
Its Activity is 97%.

What about the Activity [9] of the same compound?
Its Activity is 100%.

What about the Activity [10] of the same compound?
The Activity was 83%.

What about the Activity [11] of the same compound?
The Activity was 100%.

And the Activity [12]?
The Activity was 120%.

And the Activity [13]?
The Activity was 98%.

What about the Activity [14] of the same compound?
Its Activity is 99%.

What about the Activity [15] of the same compound?
The Activity was 88%.

What about the Activity [16] of the same compound?
Its Activity is 119%.

And the Activity [17]?
The Activity was 91%.

What about the Activity [18] of the same compound?
The Activity was 98%.

What about the Activity [19] of the same compound?
Its Activity is 98%.
